The source made the active and inactive calls. The calls are words filed in the database; no cut-off is given here.
Experiments:
[1] = target: T1, Fatty-acid amide hydrolase 1 (Rattus norvegicus, UniProt P97612); experiment: Inhibition of FAAH in Sprague-Dawley rat brain microsomes assessed as N-(2-hydroxyethyl)-4-pyren-1-ylbutanamide conversion to 4-pyren-1-ylbutanoic acid preincubated for 10 mins measured after 45 mins by HPLC analysis
T1 sequence (P97612 whole entry): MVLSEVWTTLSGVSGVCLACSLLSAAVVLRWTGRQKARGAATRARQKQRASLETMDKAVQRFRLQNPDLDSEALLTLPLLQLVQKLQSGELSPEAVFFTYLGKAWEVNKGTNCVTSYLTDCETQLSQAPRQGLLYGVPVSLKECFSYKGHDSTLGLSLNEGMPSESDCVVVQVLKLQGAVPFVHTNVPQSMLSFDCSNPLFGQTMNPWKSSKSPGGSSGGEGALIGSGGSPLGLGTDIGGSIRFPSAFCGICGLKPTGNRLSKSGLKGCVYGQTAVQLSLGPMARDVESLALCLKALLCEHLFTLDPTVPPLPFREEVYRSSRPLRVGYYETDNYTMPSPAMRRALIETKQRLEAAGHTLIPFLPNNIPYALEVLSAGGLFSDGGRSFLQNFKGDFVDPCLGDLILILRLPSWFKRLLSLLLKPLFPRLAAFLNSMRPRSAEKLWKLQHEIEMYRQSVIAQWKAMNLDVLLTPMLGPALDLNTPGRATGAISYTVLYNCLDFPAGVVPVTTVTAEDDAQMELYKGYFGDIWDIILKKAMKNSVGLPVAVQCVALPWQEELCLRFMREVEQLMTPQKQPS

Sus scrofa = organism: Sus scrofa; experiment: Inhibition of cytosolic phospholipase A2alpha in porcine platelets assessed as 1-stearoyl-2-arachidonoyl-sn-glycero-3-phosphocholine conversion to arachidonic acid at 10 uM by HPLC analysis
Monoglyceride lipase [2] = target: T2, Monoglyceride lipase (Homo sapiens, UniProt Q99685); experiment: Inhibition of human recombinant MAGL-mediated 1,3-dihydroxypropan-1-yl 4-pyren-1-ylbutanoate conversion to 4-pyren-1-ylbutanoic acid preincubated for 15 mins measured after 45 mins by HPLC analysis
T2 sequence (Q99685 whole entry): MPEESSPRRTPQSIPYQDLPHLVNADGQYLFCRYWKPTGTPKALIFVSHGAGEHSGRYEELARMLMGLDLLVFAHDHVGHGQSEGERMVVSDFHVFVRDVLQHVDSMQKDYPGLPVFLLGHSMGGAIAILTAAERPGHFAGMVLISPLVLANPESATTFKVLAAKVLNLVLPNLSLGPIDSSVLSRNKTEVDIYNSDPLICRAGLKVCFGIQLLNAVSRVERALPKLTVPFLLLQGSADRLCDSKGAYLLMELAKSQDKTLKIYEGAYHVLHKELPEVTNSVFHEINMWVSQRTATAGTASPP

Monoglyceride lipase [3] = target: T2, Monoglyceride lipase; experiment: Inhibition of MAGL (unknown origin)
[4] = target: T3, Fatty-acid amide hydrolase 1 (Homo sapiens, UniProt O00519); experiment: Inhibition of FAAH (unknown origin)
T3 sequence (O00519 whole entry): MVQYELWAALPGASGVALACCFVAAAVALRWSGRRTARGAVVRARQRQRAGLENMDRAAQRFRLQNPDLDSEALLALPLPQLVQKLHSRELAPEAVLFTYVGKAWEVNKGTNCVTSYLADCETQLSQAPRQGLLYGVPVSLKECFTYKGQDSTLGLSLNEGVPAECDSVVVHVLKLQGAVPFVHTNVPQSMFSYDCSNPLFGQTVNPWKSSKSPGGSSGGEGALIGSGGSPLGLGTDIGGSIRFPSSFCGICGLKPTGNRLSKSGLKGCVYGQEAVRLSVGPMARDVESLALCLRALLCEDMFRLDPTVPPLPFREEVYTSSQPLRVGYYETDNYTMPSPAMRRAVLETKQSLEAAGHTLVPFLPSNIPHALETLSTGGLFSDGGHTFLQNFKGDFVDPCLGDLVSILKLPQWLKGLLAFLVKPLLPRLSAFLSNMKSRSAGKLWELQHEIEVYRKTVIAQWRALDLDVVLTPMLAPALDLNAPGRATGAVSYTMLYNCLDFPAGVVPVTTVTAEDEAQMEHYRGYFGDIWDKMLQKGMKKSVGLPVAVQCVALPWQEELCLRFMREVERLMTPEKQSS

[5] = target: T4, Fatty-acid amide hydrolase 1 (Rattus norvegicus) (UniProt P97612); experiment: Inhibition of FAAH in Sprague-Dawley rat brain microsomes assessed as N-(2-hydroxyethyl)-4-pyren-1-ylbutanamide conversion to 4-pyren-1-ylbutanoic acid at 10 uM preincubated for 10 mins measured after 45 mins by HPLC analysis relative to control
T4 sequence (whole entry): T1 sequence (P97612 whole entry)

Monoglyceride lipase [6] = target: T5, Monoglyceride lipase (Rattus norvegicus, UniProt Q8R431); experiment: Inhibition of rat MAGL expressed in monkey COS7 cells; assay type: cell-based, COS-7
T5 sequence (Q8R431 whole entry): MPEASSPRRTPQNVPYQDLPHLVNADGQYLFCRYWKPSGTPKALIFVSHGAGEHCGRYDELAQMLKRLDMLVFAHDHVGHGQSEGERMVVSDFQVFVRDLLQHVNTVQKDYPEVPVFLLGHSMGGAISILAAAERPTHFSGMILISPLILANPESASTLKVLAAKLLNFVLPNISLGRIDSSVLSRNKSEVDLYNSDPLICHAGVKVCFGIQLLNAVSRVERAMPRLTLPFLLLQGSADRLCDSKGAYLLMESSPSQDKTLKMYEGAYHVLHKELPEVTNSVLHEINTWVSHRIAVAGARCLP

[7] = target: T6, Monoglyceride lipase (Homo sapiens) (UniProt Q99685); experiment: Inhibition of human recombinant MAGL-mediated 1,3-dihydroxypropan-1-yl 4-pyren-1-ylbutanoate conversion to 4-pyren-1-ylbutanoic acid at 10 uM preincubated for 15 mins measured after 45 mins by HPLC analysis relative to control
T6 sequence (whole entry): T2 sequence (Q99685 whole entry)

[8] = Metabolic stability in Wistar rat liver S9 fraction at 20 uM after 30 mins by HPLC analysis; assay type: ADME, subcellular; conditions: read-out: Stability
[9] = Selectivity ratio of IC50 for human recombinant MAGL to IC50 for FAAH in Sprague-Dawley rat brain microsomes; conditions: Microsome
Monoglyceride lipase [10] = target: T2, Monoglyceride lipase; experiment: Inhibition of MAGL (unknown origin) using 4-nitrophenylacetate as substrate
Monoglyceride lipase [11] = target: T2, Monoglyceride lipase; experiment: Inhibition of human MAGL expressed in Escherichia coli using 6-methoxy-4-methylcoumarin ester as substrate after 3 hrs by mass spectroscopic analysis
Monoglyceride lipase [12] = target: T5, Monoglyceride lipase; experiment: Inhibition of MAGL in rat cerebellar membranes; assay type: cell membranes, Membrane

Structure (SMILES): Cc1ccc(C)n1Cc1ccc(-c2nnn(C(=O)N(C)C)n2)cc1
- IC50 [1]: 140 nM

Structure (SMILES): CN(C)C(=O)n1nnc(Cc2ccc(-c3ccccc3)cc2)n1
- inhibition (Sus scrofa): inactive
- IC50 (Monoglyceride lipase [2]): 6 nM
- IC50 [1]: 12 nM

Structure (SMILES): COc1nn(-c2ccc(Oc3ccccc3)cc2)c(=O)o1
- IC50 (Monoglyceride lipase [3]): 78 nM
- IC50 [4]: 65 nM
- IC50 (Monoglyceride lipase [2]): 310 nM
- IC50 [1]: 720 nM

Structure (SMILES): CN(C)C(=O)n1nnc(-c2ccc(-n3cccc3)cc2)n1
- IC50 [1]: 5 nM

Structure (SMILES): CC(=O)c1cc(C)n(-c2ccc(-c3nnn(C(=O)N(C)C)n3)cc2)c1C
- IC50 [1]: 9 nM

Structure (SMILES): Cc1cc(C(=O)c2ccccc2)c(C)n1-c1ccc(-c2nnn(C(=O)N(C)C)n2)cc1
- IC50 [1]: 16 nM

Structure (SMILES): CN(C)C(=O)n1nnnc1Cc1ccc(Oc2ccccc2)cc1
- inhibition (Sus scrofa): inactive
- IC50 [1]: 6 nM

Structure (SMILES): CN(C)C(=O)n1nnc(-c2ccc(Cn3ccc4ccccc43)cc2)n1
- IC50 [1]: 88 nM

Structure (SMILES): Cc1ccc(C)n1-c1ccc(-c2nnn(C(=O)N(C)C)n2)cc1
- IC50 [1]: 9 nM

Structure (SMILES): Cc1cc(C(=O)c2ccc(-c3ccccc3)cc2)c(C)n1-c1ccc(-c2nnn(C(=O)N(C)C)n2)cc1
- IC50 [1]: 40 nM

Structure (SMILES): CN(C)C(=O)n1nnc(-c2ccc(-n3cccn3)cc2)n1
- IC50 [1]: 8 nM

Structure (SMILES): CN(C)C(=O)n1nnc(-c2ccc(Oc3ccc(F)cc3)cc2)n1
- IC50 [1]: 14 nM

Structure (SMILES): O=C(Oc1ccc([N+](=O)[O-])cc1)N1CCC(C(O)(c2ccc3c(c2)OCO3)c2ccc3c(c2)OCO3)CC1
- inhibition [5]: inactive
- IC50 (Monoglyceride lipase [6]): 25 nM

Structure (SMILES): CN(C)C(=O)n1nnc(-c2ccc(Oc3cccc(F)c3)cc2)n1
- IC50 [1]: 10 nM

Structure (SMILES): CN(C)C(=O)n1nnc(-c2ccc(Cn3cccc3)cc2)n1
- IC50 [1]: 11 nM

Structure (SMILES): O=C1NCC(c2ccc(Oc3ccccc3)cc2)O1 (configuration not stated)
- inhibition [5]: inactive
- inhibition [7]: inactive

Structure (SMILES): CC(C)N(C(=O)n1nnc(-c2ccc(Oc3ccccc3)cc2)n1)C(C)C
- inhibition [5]: 17%
- remaining at 0.5 h, 20 µM [8]: 27%
- inhibition [7]: inactive
- IC50 [1]: > 10000 nM

Structure (SMILES): O=c1[nH]c(-c2ccc(Oc3ccccc3)cc2)no1
- inhibition [5]: inactive
- inhibition [7]: inactive

Structure (SMILES): COc1cccc(Oc2ccc(-c3nnn(C(=O)N(C)C)n3)cc2)c1
- IC50 [1]: 15 nM

Structure (SMILES): CN(C)C(=O)n1nnnc1Cc1ccc(-c2ccccc2)cc1
- inhibition (Sus scrofa): inactive
- IC50 (Monoglyceride lipase [2]): 290 nM
- Ratio IC50 [9]: 60
- IC50 [1]: 5 nM

Structure (SMILES): O=C1C=CC(=O)N1Cc1ccc(Oc2ccccc2)cc1
- IC50 (Monoglyceride lipase [2]): > 10000 nM
- inhibition [7]: 44%
- IC50 [1]: 4900 nM

Structure (SMILES): Cc1ccc(Oc2ccc(-c3nnn(C(=O)N(C)C)n3)cc2)cc1
- IC50 [1]: 24 nM

Structure (SMILES): O=C1N=C(O)S/C1=C\c1ccc(Oc2ccccc2)cc1
- inhibition [5]: inactive
- inhibition [7]: inactive

Structure (SMILES): COc1ccc(Oc2ccc(-c3nnn(C(=O)N(C)C)n3)cc2)cc1
- IC50 [1]: 13 nM

Structure (SMILES): CN(C)C(=O)n1nnc(-c2ccc(Oc3ccccc3)cc2)n1
- inhibition (Sus scrofa): inactive
- remaining at 0.5 h, 20 µM [8]: 0%
- IC50 [1]: 12 nM

Structure (SMILES): O=C1C=CC(=O)N1c1ccc(Oc2ccccc2)cc1
- IC50 [1]: 5300 nM

Structure (SMILES): CN(C)C(=O)n1nnc(-c2ccc(Oc3ccc(Cl)cc3)cc2)n1
- IC50 [1]: 16 nM

Structure (SMILES): CN(C)C(=O)n1nnc(Cc2ccc(Oc3ccccc3)cc2)n1
- inhibition (Sus scrofa): inactive
- IC50 [1]: 9 nM

Structure (SMILES): CN(C)C(=O)n1nnnc1-c1ccc(Oc2ccccc2)cc1
- inhibition (Sus scrofa): inactive
- IC50 [1]: 7 nM

Structure (SMILES): Cc1cccc(Oc2ccc(-c3nnn(C(=O)N(C)C)n3)cc2)c1
- IC50 [1]: 13 nM

Structure (SMILES): O=C(NC1CCCCC1)N1CC(c2ccc(Oc3ccccc3)cc2)OC1=O (configuration not stated)
- inhibition [5]: inactive
- inhibition [7]: inactive

Structure (SMILES): COc1nn(-c2ccc(NC(=O)OCc3ccccc3)c(C)c2)c(=O)o1
- IC50 (Monoglyceride lipase [3]): 92 nM
- IC50 (Monoglyceride lipase [10]): 400 nM
- IC50 [4]: 76 nM
- IC50 (Monoglyceride lipase [2]): 480 nM
- IC50 [1]: 1300 nM

Structure (SMILES): CN(C)C(=O)n1nnc(-c2ccc(Oc3ccc(Cl)c(Cl)c3)cc2)n1
- IC50 [1]: 11 nM

Structure (SMILES): CN(C)C(=O)n1nnc(-c2ccc(Oc3cccc(Cl)c3)cc2)n1
- IC50 [1]: 9 nM

Structure (SMILES): O=C(CCCCCc1ccccc1)c1nc2ncccc2o1
- inhibition [7]: inactive
- IC50 [1]: 4 nM

Structure (SMILES): CCCCC/C=C\C/C=C\C/C=C\C/C=C\CCCCN1C(=O)C=CC1=O
- inhibition [5]: 38%
- IC50 (Monoglyceride lipase [11]): 2800 nM
- IC50 (Monoglyceride lipase [12]): 140 nM
- inhibition [7]: inactive

Structure (SMILES): CN(C)C(=O)n1nnc(-c2ccc(-n3ccc4ccccc43)cc2)n1
- IC50 [1]: 12 nM

Structure (SMILES): Cc1cc(C(=O)C(C)(C)C)c(C)n1-c1ccc(-c2nnn(C(=O)N(C)C)n2)cc1
- IC50 [1]: 29 nM

Structure (SMILES): CCCCCC(=O)c1cc(C)n(-c2ccc(-c3nnn(C(=O)N(C)C)n3)cc2)c1C
- IC50 [1]: 11 nM

Structure (SMILES): CCN(CC)C(=O)n1nnc(-c2ccc(Oc3ccccc3)cc2)n1
- remaining at 0.5 h, 20 µM [8]: 0%
- IC50 [1]: 37 nM

— ChEMBL document CHEMBL2375343, “(4-Phenoxyphenyl)tetrazolecarboxamides and related compounds as dual inhibitors of fatty acid amide hydrolase (FAAH) and monoacylglycerol lipase (MAGL)” (Eur J Med Chem, 2013)
